The NIST ThermoML archive (doi:10.1016/j.fluid.2018.07.032)
Numbers after ± are expanded uncertainties.

Settings: 1825 kPa, Liquid, Pendant drop shape

Structure (SMILES)	interfacial tension (383 K)	interfacial tension (403 K)	interfacial tension (423 K)	interfacial tension (443 K)
Cc1ccccc1 [toluene] + O	28.6 ± 0.1 mN/m	26.4 ± 0.1 mN/m	23.8 ± 0.2 mN/m	20.2 ± 0.2 mN/m
CCCCCCCCCCCC [dodecane] + O	40 ± 0.2 mN/m	36.5 ± 0.2 mN/m	32.9 ± 0.2 mN/m	28.5 ± 0.2 mN/m
